From US20210029995A1, “Use of Volatile Organic Compounds as Pesticides” (Certis Europe B.V., priority 2018, published 2021)
Where a name gives a salt, the structure may show the parent alone.

Key:
[1] = tested on: S. feltiae; conditions: 20 μl VOC, checked after 24 hr, sealed Petri dish
Method: (§1) Authenticated M. brunneum VOCs, along with other selected VOCs, were screened for nematicidal activity against S. feltiae and H. bacteriophora. […] Each Petri dish (90 mm) contained 20 ml of the water agar medium. The inoculated plates were kept in darkness for 3 hr at room temperature to acclimatize. The plates were then exposed to 20 μl of the VOC dispensed from a 8 mm paper disc (Whatman™, 0.34 mm thickness) positioned on a 25×25 mm glass coverslip placed in the centre of the Petri dish lid (FIG. 1A). The plates were sealed with a double layer of Parafilm and were kept in the dark at 21° C. and checked after 24 hr. The number of live and dead nematodes were counted with the aid of a stereo binocular microscope (30×).
(§2) The deposition was predetermined using bacterial cultures highly sensitive to these VOCs. The edge of the circular zone of inhibition delineated the area of activity.
(§3) Mean of mortality was calculated from the total number of alive and dead individuals across all circles. There were five replicates per treatment and the whole experiment was repeated twice.

[2] = tested on: H. bacteriophora; conditions: 20 μl VOC, checked after 24 hr, sealed Petri dish
Method: as §1, §2, §3

[3] = tested on: S. carpocapsae; assay: Dose mortality assay for the EPNs (Example 2); type: in vivo, Steinernema carpocapsae; conditions: for mortality: after 24 hr
Method: (§4) All statistical analyses were carried out using RStudio statistics package (RStudio, Inc. version 1.0.153), using “MASS” and “multcomp” packages. For all mortality data, differential sensitivity between EPN species and/or insect species and differential compound potency were determined using a generalised linear model (GLM) and Tukey's range test in post-hoc analysis. LD50 values were calculated using a GLM and the “dose.p” function within the “MASS” package. An ANOVA was carried out on the chemotactic responses of EPNs to VOCs, with the strength of response compared at each time and concentration. Welch's t-tests were used to compare means of mortality results in the final EPNs efficacy assay.
(§5) Dose mortality assays were performed using 3-octanone and 1-octen-3-ol. The assays were performed as described in Example 1, except that the EPNs (S. carpocapsae (Sc), S. feltiae (Sf) and H. bacteriophora (Hb)) were exposed to different doses of the VOCs (5, 10, 15 and 20 μl). The mortality was recorded as described previously at 3, 6, 12 and 24 hr post treatment. Controls included EPNs only (no VOC) and EPNs+1-octene. The results are shown in FIG. 2 (results 3 hr post treatment), 3 (results 6 hr post treatment), 4 (results 12 hr post treatment) & 5 (results 24 hr post treatment).

[4] = tested on: root knot nematode M. hapla; conditions: for nematicidal activity against M. hapla: 5 μl and 10 μl
Method: (§6) Authenticated M. brunneum VOCs, along with other selected VOCs, were screened for nematicidal activity against S. feltiae and H. bacteriophora. 750 μl of nematode suspension containing approximately 5000 Us in tap water, was spread uniformly over the water agar surface (2.6% w/v agar, 5 mM potassium phosphate pH 6, 1 mM CaCl2 and 1 mM MgSO4) of a Petri dish. Each Petri dish (90 mm) contained 20 ml of the water agar medium. The inoculated plates were kept in darkness for 3 hr at room temperature to acclimatize. The plates were then exposed to 20 μl of the VOC dispensed from a 8 mm paper disc (Whatman™, 0.34 mm thickness) positioned on a 25×25 mm glass coverslip placed in the centre of the Petri dish lid (FIG. 1A). The plates were sealed with a double layer of Parafilm and were kept in the dark at 21° C. and checked after 24 hr. The number of live and dead nematodes were counted with the aid of a stereo binocular microscope (30×).
A study was conducted to determine the susceptibility of the root knot nematode M. hapla, a major crop pest, to 3-octanone and 1-octen-3-ol. Single egg-mass populations of M. hapla were kindly provided by Dr Ivan Grove (Harper Adams University/Crop and Environment Sciences). Four-week-old tomato plants (Solanum lycopersicum cv. Rutgers) were grown in a greenhouse. Soil in each pot was infested by pipetting egg masses of M. hapla suspended in tap water and cultivated at approximately 25±2° C. in a greenhouse. Six months following inoculation, tomato plants were uprooted and root systems were carefully washed with running tap water to remove adhered soil. The roots were cut into small pieces and extracted by the Baermann funnel method for 3-5 days to obtain live nematodes. The inoculum concentration included a range of life stages and was adjusted to approximately 2000 individuals using tap water by the aid of a haemocytometer. A mortality assay was carried out as described in Examples 1 and 2 above. The assay was carried out at two doses of the VOCs (5 μl and 10 μl) and the mortality was recorded at 3, 6 and 24 hr post treatment. There were three replicates per treatment and the whole experiment was repeated twice.

[5] = tested on: H. bacteriophora; assay: Dose mortality assay for the EPNs (Example 2); type: in vivo, Heterorhabditis bacteriophora
Method: as §4, §5

[6] = tested on: S. feltiae; assay: Dose mortality assay for the EPNs (Example 2); type: in vivo, Steinernema feltiae
Method: as §4, §5

[7] = tested on: S. carpocapsae, S. feltiae and H. bacteriophora; assay: Dose mortality assay, statement for all three EPNs; type: in vivo; conditions: for mortality: all three EPNs, after 24 hr
Method: as §6
as §5, with “EPNs+1-octene.” for “EPNs+1-octene. The results are shown in FIG. 2 (results 3 hr post treatment), 3 (results 6 hr post treatment), 4 (results 12 hr post treatment) & 5 (results 24 hr post treatment).”

Compound	Mortality (%) (Mean ± SE) S. feltiae (Sf) [1]	Mortality (%) (Mean ± SE) H. bacteriophora (Hb) [2]	also measured
C=CC(O)CCCCC (centres unmarked) [1-octen-3-ol]	100%	91.6±2.1%	LD50 ([3]; 24 hr): 41.01 µL; nematicidal activity against M. hapla [4]: strong nematicidal activity; mortality response ([4]; M. hapla, after 3 hr and 6 hr, 5 and 10 μl): dose dependent response; dead nematodes ([4]; M. hapla, after 24 hr, both doses (5 μl and 10 μl)): over 90%; LD50 ([5]; 6 hr): 21.72 µL; LD50 ([6]; 6 hr): 10.56 µL; mortality [7]: very high
C=CCCCCCC [1-octene, reference compound]	20.1 ± 3%	19.4 ± 3.8%	mortality [3]: ≤ 50%; mortality ([6]; after 24 hr): ≤ 50%; mortalities ([7]; EPNs, over time (3-24 hr)): extremely low
CC(O)C(C)O (centres unmarked) [2,3-Butanediol]	12.5 ± 7.2%	11.4 ± 2.3%	
CCCCCC(=O)CC [3-octanone]	100%	100%	LD50 ([3]; 12 hr): 94.88 µL; mortality ([3]; all doses (5-20 μl)): all nematodes were dead at all doses; nematicidal activity against M. hapla [4]: strong nematicidal activity; mortality ([4]; in vivo): 100%; LD50 ([5]; 3 hr): 5.68 µL; mortality ([5]; time points later than 3 hr): exceeded 90%; mortality ([6]; at all time points (3, 6, 12, 24 hr)): > 99%; LD50 (μl) ([6]; no LD50 calculated): a (>99% mortality from 3 hr); mortality [7]: very high
C=C(C)[C@H]1CC=C(C)CC1 [(R)-(+)-Limonene]	16.7 ± 3.2%	5.9 ± 1.9%	
CC(C)CCO [Isoamyl alcohol]	20.8 ± 3%	9.7 ± 2.1%	
CC(C)CCOC=O [Isoamyl formate]	58%	46.6±1.8%	
COC(=O)CC(C)C [Methyl isovalerate]	38.1 ± 7%	55 ± 2.6%	
CCCCCCCCCCCCC [Tridecane]	32.3 ± 5%	4.1 ± 1.6%	
CCCCCCCCCCC [Undecane]	25.4 ± 5.6%	7.5 ± 2.7%	
Farnesene	43 ± 1.1%	7.8 ± 3.1%	
